{
  "source": "patent US20190216751A1",
  "about": "“Compositions and Methods for the Treatment and Prevention of Cancer” (California State University Northridge, priority 2017, published 2019)",
  "key": {"[1]": {"tested_on": "4T1 cells", "experiment": "Cell proliferation assay (CellTiter 96 AQueous One, MTS)", "format": "cell-based, mouse", "excerpt": "(§1) The next research questions revolved around asking how TGFβ is regulating eIF5A and what other proteins might be involved to completely block TGFβ-induced EMT. This led to histone deacetylase enzyme 6 (HDAC6). HDAC6 has been previously reported to be responsible for the deacetylation of eIF5A in the nucleus in order to make it readily available for hypusination and later transport out in the cytoplasm for functioning as a translation factor. To determine if it were possible to further increase the efficacy or potency of GC7, the inventors co-treated with Tubastatin A (an HDAC6 inhibitor) in 4T1 and 67NR cells as well as MDA-MB-468 cells which initially were not very sensitive to GC7. Triple negative human breast cancer cell line, […], was also used to see if another cell line representative of this breast cancer subtype was sensitive towards DHPS and HDAC6 inhibition. (FIGS. 5A and 5B). Here, are shown cell viability graphs for these four cell lines pretreated with GC7 at 1 μM and after 12 hours were exposed to various concentrations of Tubastatin A (TubA) ranging from 0.1 nM to 100 μM. […] MDA-MB-468 and BT549 cells remained to be insensitive to TubA with or without GC7 pretreatment (FIG. 5A). Next, the inventors performed the opposite cell viability experiment in which these four cell lines were pretreated with TubA at 1 μM and then exposed these cells to various concentrations of GC7 ranging from 0.1 nM to 1 mM. […] 4T1 cells were treated with TubA at 10 μM, GC7 at 10 μM or both drugs simultaneously for 48, 72 and 96 hours. […] To test this, the inventors looked further into the changes of eIF5A localization when treating with TubA, GC7 or both drugs simultaneously. In FIG. 5D is shown immunofluorescence staining of 4T1 cells treated with TubA at 10 μM, GC7 at 10 μM or both drugs at those same concentrations for 48 hours. […] DAPI was used to stain the nuclei shown in the […] channel and phase-contrast images are shown as reference (FIG. 5D). […] Protein lysates were also collected at the same time point described in FIG. 5D. Twenty μg of protein for each condition was run on a Bis-Tris […] gel then transferred onto a nitrocellulose membrane before staining total protein using Ponceau S (FIG. 5E).\n(§2) The CellTiter 96® AQueous One Solution (Promega) was used to perform cell proliferation experiments. Cells were plated at 5e3 cells/mL at 200 μL/well in a 96-well plate and allowed to attach overnight. Cells were then treated with indicated drugs the next day at various concentrations. After 72 hours of drug treatments, 40 μL of AQueous One solution was added to each well. Absorbance readings were measured at 490 nm wavelength at 1.5, 2 and 3 hours (absorbance is directly proportional to the number of living cells)."}, "[2]": {"tested_on": "67NR cells", "experiment": "Cell proliferation assay (CellTiter 96 AQueous One, MTS)", "format": "cell-based, mouse", "excerpt": "as §1, §2"}, "[3]": {"tested_on": "MDA-MB-468 cells", "experiment": "Cell proliferation assay (CellTiter 96 AQueous One, MTS)", "format": "cell-based, human", "conditions": "TubA 1 μM pretreatment, GC7 0.1 nM to 1 mM", "excerpt": "The next research questions revolved around asking how TGFβ is regulating eIF5A and what other proteins might be involved to completely block TGFβ-induced EMT. This led to histone deacetylase enzyme 6 (HDAC6). HDAC6 has been previously reported to be responsible for the deacetylation of eIF5A in the nucleus in order to make it readily available for hypusination and later transport out in the cytoplasm for functioning as a translation factor. To determine if it were possible to further increase the efficacy or potency of GC7, the inventors co-treated with Tubastatin A (an HDAC6 inhibitor) in 4T1 and 67NR cells as well as MDA-MB-468 cells which initially were not very sensitive to GC7. Triple negative human breast cancer cell line, BT547, was also used to see if another cell line representative of this breast cancer subtype was sensitive towards DHPS and HDAC6 inhibition. (FIGS. 5A and 5B). […] MDA-MB-468 and BT549 cells remained to be insensitive to TubA with or without GC7 pretreatment (FIG. 5A). […]\nThe CellTiter 96® AQueous One Solution (Promega) was used to perform cell proliferation experiments. […] Absorbance readings were measured at 490 nm wavelength at 1.5, 2 and 3 hours (absorbance is directly proportional to the number of living cells)."}, "[4]": {"tested_on": "MCF10A", "experiment": "Cell proliferation assay (CellTiter 96 AQueous One, MTS)", "format": "cell-based, human", "conditions": "non-malignant mammary cell line", "description": "as §2"}, "[5]": {"tested_on": "eIF5A localization in 67NR cells", "experiment": "Immunofluorescence, subcellular localization of total eIF5A", "format": "cell-based, mouse", "conditions": "1 and 10 μM GC7, 48 hours", "description": "(§3) Thus, we interrogated the subcellular localization of eIF5A protein using immunofluorescent staining under control as well as 1 and 10 μM GC7 treatment conditions in triple negative breast cancer lines (FIGS. 12A and 12B).\n(§4) Cells were plated at 1e4 cells/mL at 4 mL in a 6-well plate containing a sterile glass coverslip and allowed to attach overnight. Cells were then treated with appropriate inhibitors at indicated concentrations and time-points. Cells were first fixed using 4% paraformaldehyde for 20 minutes. Cells were then subjected to Triton-X to permeabilize the cells before treatment with specific antibodies in 2% BSA in PBS. After primary antibody incubation for 90 minutes, cells were washed with PBS three times before incubating with secondary antibodies in 2% BSA in PBS for 1 hour. Cells were again washed with PBS three times before set overnight staining with DAPI. Cells were then imaged using a Leica DMI6000 inverted microscope at 100× magnification."}, "[6]": {"tested_on": "eIF5A localization in MCF10CA1h cells", "experiment": "Immunofluorescence, subcellular localization of total eIF5A", "format": "cell-based, human", "conditions": "1 and 10 μM GC7, 48 hours", "description": "as §3, §4"}, "[7]": {"tested_on": "eIF5A localization in MDA-MB-468 cells", "experiment": "Immunofluorescence, subcellular localization of total eIF5A", "format": "cell-based, human", "conditions": "1 and 10 μM GC7, 48 hours", "description": "as §3, §4"}, "[8]": {"tested_on": "eIF5A", "conditions": "during GC7 treatment; cited from earlier work"}, "[9]": {"tested_on": "FOXP3+ T regulatory cell populations", "conditions": "increasing concentrations of GC7, type 1 diabetic mice in vivo; cited from earlier work"}, "[10]": {"conditions": "TubA 1 μM pretreatment, GC7 0.1 nM to 1 mM"}},
  "data": [
    {"compound": "N=C(N)NCCCCCCCN.O=S(=O)(O)O", "note": "[GC7, N1-Guanyl-1,7-diaminoheptane]", "values": [
      {"measurement": "efficacy after GC7 treatment (cell viability)", "setting": "[1]; 72 hours, 0.1 nM→1 mM", "result": "largest efficacy"},
      {"measurement": "change of potency of GC7 by TubA pretreatment (cell viability)", "setting": "[1]; [10]", "result": "subtly decreased"},
      {"measurement": "efficacy after GC7 treatment (cell viability)", "setting": "[2]; 72 hours, 0.1 nM→1 mM", "result": "largest efficacy"},
      {"measurement": "change of potency of GC7 by TubA pretreatment (cell viability)", "setting": "[2]; [10]", "result": "this effect was not seen in the three other cell lines"},
      {"measurement": "change of potency of GC7 by TubA pretreatment (cell viability)", "setting": "[3]", "result": "this effect was not seen in the three other cell lines"},
      {"measurement": "sensitivity to GC7 treatment", "setting": "[4]", "result": "one of the most sensitive"},
      {"measurement": "nuclear depletion of eIF5A", "setting": "[5]", "result": "Nuclear depletion of eIF5A was observed"},
      {"measurement": "nuclear depletion of eIF5A", "setting": "[6]", "result": "Nuclear depletion of eIF5A was observed"},
      {"measurement": "nuclear depletion of eIF5A", "setting": "[7]", "result": "this change was significant only in the case of MDA-MB-468 cells"},
      {"measurement": "FOXP3+ regulatory T cells at the site of the tumor", "setting": "[8]", "result": "significantly increased"},
      {"measurement": "pancreatic and splenic CD8+ lymphocytes", "setting": "[8]", "result": "did not seem to be affected"},
      {"measurement": "recruitment of CD4+ T cells at the site of the tumor", "setting": "[8]", "result": "significantly decrease"},
      {"measurement": "FOXP3+ T regulatory cell populations", "setting": "[9]", "result": "significant reduction in FOXP3+ T regulatory cell populations"}
    ]}
  ]
}
